Results as given in ChEMBL document CHEMBL4673179 (RSC Med Chem, 2020).
≈ marks a conversion by molar mass, not a printed value. *1 amine or outer side, *2 acyl side, *3 side chain or, on linkers, in order; H or OH if unused. Where a SMILES comes first, the peptide text is derived from it. The star is where a group is joined. ξ: configuration not given here. DAMPA = CN(Cc1cnc2nc(N)nc(N)c2n1)c1ccc(C(=O)*)cc1; ξγGlu = O=C(O)C(CCC(=O)[*:2])N[*:1]

Experiments:
MDA-MB-231 [1] = assay: Cytotoxicity against human MDA-MB-231 cells incubated for 30 mins by CellTiter-Glo luminescent Cell viability assay; assay type: functional, cell-based; conditions: MDA-MB-231, 0.5 h
MCF7 [2] = assay: Antitumor activity against human MCF7 cells xenografted in BALB/c nude mouse assessed as tumor growth inhibition at 200 mg/kg, ip administered every other day for 2 weeks relative to control; assay type: functional; conditions: 336 h, read-out: TGI
MCF7 [3] = assay: Cytotoxicity against human MCF7 cells incubated for 72 hrs by SRB assay; assay type: functional, cell-based; conditions: MCF7, 72 h
[4] = Drug excretion in patient bile at 10 mg/m2, po by HPLC method; assay type: ADME, organism-based; conditions: human, read-out: Drug excretion
MCF7 [5] = assay: Synergistic antitumor activity against human MCF7 cells xenografted in BALB/c nude mouse assessed as tumor growth inhibition at 50 mg/kg, ip administered once per week for 2 weeks in presence of AICA riboside relative to control; assay type: functional; conditions: 336 h, read-out: TGI
MDA-MB-231 [6] = assay: Synergistic antiproliferative activity against human MDA-MB-231 cells assessed as cell survival rate at 10 uM incubated for 72 hrs in presence of alpha-tocopherol measured every 24 hrs by MTT assay relative to control; assay type: functional; conditions: read-out: Survival
MCF7 [7] = assay: Antineoplastic activity against human MCF7 cells incubated for 72 hrs by prestoblue reduction assay; assay type: functional, cell-based; conditions: MCF7, 72 h
[8] = Oral bioavailability in pediatric patient at > 40 mg/m2; assay type: ADME, organism-based; conditions: human, in vivo
MCF7 [9] = assay: Antitumor activity against human MCF7 cells xenografted in BALB/c nude mouse assessed as tumor growth inhibition at 50 mg/kg, ip administered once per week for 2 weeks relative to control; assay type: functional; conditions: 336 h, read-out: TGI
Albumin = Albumin (Homo sapiens, UniProt P02768); assay: Binding affinity to human serum albumin by Scatchard plot; assay type: ADME, cell-free
MDA-MB-231 [10] = assay: Synergistic antiproliferative activity against human MDA-MB-231 cells assessed as cell survival rate at 0.1 uM incubated for 72 hrs in presence of alpha-tocopherol measured every 24 hrs by MTT assay relative to control; assay type: functional; conditions: read-out: Survival
[11] = Blood brain barrier permeability in iv dosed human; assay type: ADME, organism-based
[12] = Drug metabolism in human assessed as carboxypeptidase-G2 (unknown origin)- mediated drug conversion to DAMPA and glutamate; assay type: ADME
MCF7 [13] = assay: Antiproliferative activity against human MCF7 assessed as reduction in cell number at 10 uM measured after 6 days in presence of 100 uM AICAR by sulforhodamine B assay relative to control; assay type: functional; parameters: scale not given: the % may be the effect or the level left; conditions: time 6 day
[14] = Half life in plasma (unknown origin); assay type: ADME, cell-free
[15] = Oral bioavailability in pediatric patient at <= 40 mg/m2; assay type: ADME, organism-based; conditions: human, in vivo
[16] = Aqueous solubility of compound; assay type: physicochemical; conditions: aqueous medium

Albumin, sequence (P02768 whole entry): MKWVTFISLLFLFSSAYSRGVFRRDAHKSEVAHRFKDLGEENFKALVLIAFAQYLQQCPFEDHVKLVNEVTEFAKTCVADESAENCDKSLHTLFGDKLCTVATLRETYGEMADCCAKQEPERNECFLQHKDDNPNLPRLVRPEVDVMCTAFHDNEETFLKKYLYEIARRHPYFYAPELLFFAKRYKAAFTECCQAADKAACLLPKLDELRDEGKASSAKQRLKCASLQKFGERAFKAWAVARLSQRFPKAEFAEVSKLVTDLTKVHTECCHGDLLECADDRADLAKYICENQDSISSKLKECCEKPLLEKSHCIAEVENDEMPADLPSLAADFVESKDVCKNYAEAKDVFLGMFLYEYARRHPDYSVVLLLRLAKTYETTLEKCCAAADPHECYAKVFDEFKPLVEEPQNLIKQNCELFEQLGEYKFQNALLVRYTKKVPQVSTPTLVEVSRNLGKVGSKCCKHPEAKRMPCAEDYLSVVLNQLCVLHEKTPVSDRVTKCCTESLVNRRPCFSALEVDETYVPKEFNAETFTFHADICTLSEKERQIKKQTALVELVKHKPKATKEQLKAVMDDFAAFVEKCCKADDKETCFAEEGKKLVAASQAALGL

With CC[C@H](C)[C@H](NC(=O)[C@H](C)NC(=O)[C@@H](NC(=O)[C@H](Cc1ccc(O)cc1)NC(=O)CNC(=O)CCC(NC(=O)c1ccc(N(C)Cc2cnc3nc(N)nc(N)c3n2)cc1)C(=O)O)[C@@H](C)O)C(=O)N[C@@H](C)C(=O)N[C@@H](Cc1c[nH]c2ccccc12)C(=O)N[C@H](C(=O)N[C@@H](CCCCN)C(=O)N[C@@H](C)C(=O)N[C@@H](Cc1ccccc1)C(=O)N[C@H](C(=O)N[C@@H](CCCNC(=N)N)C(=O)N[C@@H](CCCCN)C(=O)N[C@@H](CC(C)C)C(=O)N[C@@H](CCCNC(=N)N)C(=O)N[C@@H](CCCCN)C(N)=O)[C@@H](C)CC)C(C)C (stereo partly drawn) ({DAMPA-ξγGlu}-GYTAIAWVKAFIRKLRK-NH2) the EC50 (MDA-MB-231 [1]) was 3800 nM.
In the case of NC(=O)c1ncn([C@@H]2O[C@H](CO)[C@@H](O)[C@H]2O)c1N [ACADESINE], the inhibition in vivo at 200 mg/kg (MCF7 [2]) is reported as 42.2%.
With COc1cccc2c1C(=O)c1c(O)c3c(c(O)c1C2=O)C[C@@](O)(C(=O)CO)C[C@@H]3O[C@H]1C[C@H](N)[C@@H](O)[C@H](C)O1 [EPIRUBICIN] the IC50 (MCF7 [3]) was 550 nM.
CN(Cc1cnc2nc(N)nc(N)c2n1)c1ccc(C(=O)N[C@@H](CCC(=O)O)C(=O)O)cc1 [METHOTREXATE] gave a dose excreted [4] of 8.7%, an inhibition in vivo at 50 mg/kg (MCF7 [5]) of 79.9% and a viability at 10 µM (MDA-MB-231 [6]) of 35%. It also gave an IC50 (MCF7 [7]) of 15 nM, a bioavailability [8] of 18% and an inhibition in vivo at 50 mg/kg (MCF7 [9]) of 55%. It also gave a K (Albumin) of 820 M⁻¹, an IC50 (MCF7 [3]) of over 22000 nM and a viability at 0.1 µM (MDA-MB-231 [10]) of over 60%. For the same compound, the pBBB [11] was 1.7%, the Drug metabolism [12] was over 98% and the Activity (MCF7 [13]) was 50%. The half-life [14] was 2 h, the bioavailability [15] was 42% and the solubility [16] was 10 µg/mL (≈ 22 µM).
